From patent US20180002319A1, “MACROCYCLIC PICOLINAMIDE COMPOUNDS WITH FUNGICIDAL ACTIVITY” (DOW AGROSCIENCES LLC, priority 2014, published 2018)
Read-outs that look alike come from different tables or passages of the source.

How the values were obtained:
[1] = test system: Puccinia triticina; assay: Wheat Brown Rust (PUCCRT) fungicidal activity; type: in vivo; details: for pest or weed control at 100 ppm: High Volume application; for pest or weed control at 121.5 g/ha: Low Volume application, 121.5 g/H
Protocol: (§1) Technical grades of materials were dissolved in acetone, which were then mixed with nine volumes of H2O containing 110 ppm Triton X-100. The fungicide solutions were applied onto wheat seedlings using an automated booth sprayer to run-off. All sprayed plants were allowed to air dry prior to further handling. All fungicides were evaluated using the aforementioned method for their activity vs. all target diseases, unless stated otherwise. Wheat leaf blotch and brown rust activity were also evaluated using track spray applications, in which case the fungicides were formulated as EC formulations, containing 0.1% Trycol 5941 in the spray solutions. Wheat plants (variety Yuma) were grown from seed in a greenhouse in 50% mineral soil/50% soil-less Metro mix until the first leaf was fully emerged, with 7-10 seedlings per pot. These plants were inoculated with an aqueous spore suspension of Zymoseptoria tritici either prior to or after fungicide treatments. After inoculation the plants were kept in 100% relative humidity (one day in a dark dew chamber followed by two to three days in a lighted dew chamber at 20° C.) to permit spores to germinate and infect the leaf. The plants were then transferred to a greenhouse set at 20° C. for disease to develop. When disease symptoms were fully expressed on the 1st leaves of untreated plants, infection levels were assessed on a scale of 0 to 100 percent disease severity. Percent disease control was calculated using the ratio of disease severity on treated plants relative to untreated plants. Example B: Evaluation of Fungicidal Activity: Wheat Brown Rust (Puccinia triticina; Bayer Code PUCCRT) Wheat plants (variety Yuma) were grown from seed in a greenhouse in 50% mineral soil/50% soil-less Metro mix until the first leaf was fully emerged, with 7-10 seedlings per pot. These plants were inoculated with an aqueous spore suspension of Puccinia triticina either prior to or after fungicide treatments. After inoculation the plants were kept in a dark dew room at 22° C. with 100% relative humidity overnight to permit spores to germinate and infect the leaf. The plants were then transferred to a greenhouse set at 24° C. for disease to develop. Fungicide formulation, application and disease assessment followed the procedures as described in the Example A.

[2] = test system: Zymoseptoria tritici; assay: Leaf Blotch of Wheat (SEPTTR) fungicidal activity; type: in vivo; details: wheat leaf blotch; for pest or weed control at 100 ppm: High Volume application; for pest or weed control at 121.5 g/ha: Low Volume application, 121.5 g/H
Protocol: as §1, with “Example A: Evaluation of Fungicidal Activity: Leaf Blotch of Wheat (Zymoseptoria tritici; Bayer Code […]) Technical” for “Technical”, “plants.” for “plants. Example B: Evaluation of Fungicidal Activity: Wheat Brown Rust (Puccinia triticina; Bayer Code PUCCRT) Wheat plants (variety Yuma) were grown from seed in a greenhouse in 50% mineral soil/50% soil-less Metro mix until the first leaf was fully emerged, with 7-10 seedlings per pot. These plants were inoculated with an aqueous spore suspension of Puccinia triticina either prior to or after fungicide treatments. After inoculation the plants were kept in a dark dew room at 22° C. with 100% relative humidity overnight to permit spores to germinate and infect the leaf. The plants were then transferred to a greenhouse set at 24° C. for disease to develop. Fungicide formulation, application and disease assessment followed the procedures as described in the Example A.”

[3] = 24 h, 1 day protectant, read-out: PUCCRT disease control, 1DP (1 Day Protectant)
[4] = 72 h, 3 day curative, read-out: PUCCRT disease control, 3DC (3 Day Curative)
[5] = 24 h, 1 day protectant, read-out: SEPTTR disease control, 1DP (1 Day Protectant)
[6] = 72 h, 3 day curative, read-out: SEPTTR disease control, 3DC (3 Day Curative)

SMILES	pest or weed control at 100 ppm [1, 3] [%]	pest or weed control at 121.5 g/ha [1, 3] [%]	pest or weed control at 100 ppm [1, 4] [%]	pest or weed control at 100 ppm [2, 5] [%]	pest or weed control at 121.5 g/ha [2, 5] [%]	pest or weed control at 121.5 g/ha [2, 6] [%]	pest or weed control at 100 ppm [2, 6] [%]	pest or weed control at 121.5 g/ha [1, 4] [%]
COc1ccnc(C(=O)N[C@H]2COCC[C@H](OCc3ccccc3)[C@@H](OCc3ccccc3)[C@H](C)OC2=O)c1OCOC(C)=O [Compound 1]	> 80	> 80	> 80	> 80	> 80	< 80		
CCCCO[C@H]1CCOC[C@H](NC(=O)c2nccc(OC)c2OCOC(C)=O)C(=O)O[C@@H](C)[C@@H]1OCC(C)C [Compound 7]	> 80		> 80	> 80			< 80	
COc1ccnc(C(=O)N[C@H]2CCCC[C@H](OCc3ccccc3)[C@@H](OCc3ccccc3)[C@H](C)OC2=O)c1OCOC(C)=O [Compound 8]	> 80	> 80	> 80	> 80	> 80	> 80	< 80	> 80
COc1ccnc(C(=O)N[C@H]2CCCC[C@H](OCc3ccccc3)[C@@H](OCc3ccccc3)[C@H](C)OC2=O)c1OC(C)=O [Compound 9]	> 80	> 80	> 80	> 80	> 80	> 80	< 80	< 80
COc1ccnc(C(=O)N[C@H]2CCCC[C@H](Oc3ccccc3)[C@@H](OCC(C)C)[C@H](C)OC2=O)c1OCOC(C)=O [Compound 10]	> 80		> 80	> 80			> 80	
COc1ccnc(C(=O)N[C@H]2CCCC[C@H](OC)[C@@H](Oc3ccccc3)[C@H](C)OC2=O)c1OCOC(C)=O [Compound 11]	> 80	> 80	> 80	> 80	> 80	> 80	> 80	> 80
COc1ccnc(C(=O)N[C@H]2CCCC[C@H](OC)[C@@H](OCC(C)C)[C@H](C)OC2=O)c1OCOC(C)=O [Compound 12]	> 80		> 80	> 80			> 80	
COc1ccnc(C(=O)N[C@H]2CCCC[C@H](OCC(C)C)[C@@H](Oc3ccccc3)[C@H](C)OC2=O)c1OCOC(C)=O [Compound 13]	> 80	> 80	> 80	> 80	> 80	> 80	> 80	> 80
COc1ccnc(C(=O)N[C@H]2CCCC[C@H](OCC(C)C)[C@@H](OCC(C)C)[C@H](C)OC2=O)c1OCOC(C)=O [Compound 14]	> 80	> 80	> 80	> 80	> 80	< 80	> 80	< 80
CCCCCO[C@H]1[C@H](C)OC(=O)[C@@H](NC(=O)c2nccc(OC)c2OCOC(C)=O)CCCC[C@@H]1OC(=O)c1ccccc1 [Compound 15]	> 80	> 80	> 80	> 80	> 80	> 80	> 80	< 80
COc1ccnc(C(=O)N[C@H]2CCOC[C@H](Cc3ccccc3)[C@@H](OCC(C)C)[C@H](C)OC2=O)c1OCOC(C)=O [Compound 16]	> 80	> 80	> 80	> 80	< 80	< 80	< 80	< 80
COc1ccnc(C(=O)N[C@H]2CCCC[C@H](OC)[C@@H](OC)[C@H](C)OC2=O)c1OCOC(C)=O [Compound 22]		> 80				< 80		> 80
CCCO[C@H]1CCCC[C@H](NC(=O)c2nccc(OC)c2OCOC(C)=O)C(=O)O[C@@H](C)[C@@H]1Oc1ccccc1 [Compound 23]		> 80			> 80	> 80		> 80
COc1ccnc(C(=O)N[C@H]2CCCC[C@H](Cc3ccccc3)[C@@H](OCC(C)C)[C@H](C)OC2=O)c1OCOC(C)=O [Compound 24]		> 80			> 80	> 80		< 80
COc1ccnc(C(=O)N[C@H]2CCCC[C@H](Oc3ccccc3)[C@@H](Oc3ccccc3)[C@H](C)OC2=O)c1OC(C)=O [Compound 25]		> 80			> 80	< 80		< 80
CCCO[C@H]1CCCC[C@H](NC(=O)c2nccc(OC)c2OC(C)=O)C(=O)O[C@@H](C)[C@@H]1Oc1ccccc1 [Compound 26]		> 80			> 80	> 80		> 80
COc1ccnc(C(=O)N[C@H]2CCCC[C@H](OC)[C@@H](OC)[C@H](C)OC2=O)c1OC(C)=O [Compound 27]		> 80			< 80			> 80
COc1ccnc(C(=O)N[C@H]2CCCC[C@H](OC)[C@@H](OCC(C)C)[C@H](C)OC2=O)c1OC(C)=O [Compound 28]		> 80			< 80	> 80		> 80
COc1ccnc(C(=O)N[C@H]2CCCC[C@@H]3OC(C)(C)O[C@H]3[C@H](C)OC2=O)c1OC(C)=O [Compound 29]		> 80			< 80	> 80		> 80
COc1ccnc(C(=O)N[C@H]2CCCC[C@H](OC3CCCC3)[C@@H](OC)[C@H](C)OC2=O)c1OCOC(C)=O [Compound 35]		> 80						< 80
COc1ccnc(C(=O)N[C@H]2CCOC[C@H](OCC(C)C)[C@@H](OCC(C)C)[C@H](C)OC2=O)c1OCOC(C)=O [Compound 43]		> 80						< 80
COc1ccnc(C(=O)N[C@H]2CCCC[C@H](OC)[C@@H](OC)[C@H](C)OC2=O)c1O [Compound 99]	> 80							
